Experimental data from patent publication US9980943B2, “Methods of treating muscular dystrophy” (BOARD OF REGENTS OF THE NEVADA SYSTEM OF HIGHER EDUCATION, …, priority 2013, dated 2018).

Experiments:
Type in all cases: cell-based, mouse
[1] = tested on: β-galactosidase in CMV-LacZ C2C12 myoblasts; test: CMV-LacZ secondary screen in C2C12 myoblasts (β-Gal stabilizing assay); conditions: for CMV-LACZ in Myoblasts (β-galactosidase activity relative to DMSO): CMV-LacZ C2C12 myoblasts; for CMV-LACZ in Myoblasts, value relative to DMSO: SU9516 analogs, C2C12 CMV-LacZ, N=2
Procedure, shortened: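 C2C12 myoblasts stably carrying a linearized CMV-driven LacZ construct, clone chosen by β-gal level in the myoblast FDG assay. Compounds tested in 96-well dose-response at 0.5, 1, 5, 10, 20 and 40 μM, N=2 replicates per point, to detect β-gal stabilization.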

[2] = tested on: β-galactosidase in CMV-LacZ C2C12 myotubes; test: CMV-LacZ secondary screen in C2C12 myotubes (β-Gal stabilizing assay); conditions: for CMV-LACZ in Myotubes, signal relative to DMSO: C2C12 CMV-LacZ myotubes, fold relative to DMSO; for CMV-LACZ in Myotubes, value relative to DMSO: SU9516 analogs, C2C12 CMV-LacZ, N=2
Procedure, shortened: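 Dose-response runs at 0.5–40 μM (0.5, 1, 5, 10, 20, 40 μM; N=2 per point) used a clonal C2C12 line carrying CMV-LacZ. Cells were assayed as myoblasts or as differentiated myotubes, and β-galactosidase levels were read with the FDG fluorogenic substrate.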

[3] = tested on: α7 integrin (LacZ reporter in α7βgal+/− myoblasts); test: Myoblast α7+/LacZ integrin FDG assay (Burkin assay in myoblasts, 96-well); conditions: 96-well; for Burkin Assay in Myoblasts, signal relative to DMSO: α7+/LacZ myoblasts; for Burkin Assay in Myoblasts, value relative to DMSO: SU9516 analogs, N=3-6
[4] = tested on: α7 integrin (LacZ reporter in α7+/LacZ myotubes); test: Myotube α7 integrin FDG assay (Burkin assay in myotubes, 96-well); conditions: for Burkin Assay in Myotubes, value relative to DMSO: SU9516 analogs, 96-well, N=3-6

COc1cc(NC(=O)OCc2ccccc2)c2ncccc2c1 [MLS002667707-01]
CMV-LACZ in Myoblasts (β-galactosidase activity relative to DMSO) ([1]; 0.5 uM): 1.1434 | CMV-LACZ in Myoblasts (β-galactosidase activity relative to DMSO) ([1]; 1 uM): 0.6763 | CMV-LACZ in Myoblasts (β-galactosidase activity relative to DMSO) ([1]; 5 uM): 1.1897 | CMV-LACZ in Myoblasts (β-galactosidase activity relative to DMSO) ([1]; 10 uM): 1.0803 | CMV-LACZ in Myoblasts (β-galactosidase activity relative to DMSO) ([1]; 20 uM): 1.0044 | CMV-LACZ in Myoblasts (β-galactosidase activity relative to DMSO) ([1]; 40 uM): 1.1226 | CMV-LACZ in Myotubes, signal relative to DMSO ([2]; 0.5 uM): 0.8905 | CMV-LACZ in Myotubes, signal relative to DMSO ([2]; 1 uM): 1.0590 | CMV-LACZ in Myotubes, signal relative to DMSO ([2]; 5 uM): 0.9449 | CMV-LACZ in Myotubes, signal relative to DMSO ([2]; 10 uM): 1.0227 | CMV-LACZ in Myotubes, signal relative to DMSO ([2]; 20 uM): 1.1576 | CMV-LACZ in Myotubes, signal relative to DMSO ([2]; 40 uM): 1.1071 | Burkin Assay in Myoblasts, signal relative to DMSO ([3]; 0.5 uM): 1.0156 | Burkin Assay in Myoblasts, signal relative to DMSO ([3]; 1 uM): 0.9172 | Burkin Assay in Myoblasts, signal relative to DMSO ([3]; 5 uM): 1.02 | Burkin Assay in Myoblasts, signal relative to DMSO ([3]; 10 uM): 1.235 | Burkin Assay in Myoblasts, signal relative to DMSO ([3]; 20 uM): 0.9347 | Burkin Assay in Myoblasts, signal relative to DMSO ([3]; 40 uM): 0.8314 | Burkin Assay in Myotubes, α7 integrin LacZ reporter signal relative to DMSO ([4]; 0.5 uM): 0.9955 | Burkin Assay in Myotubes, α7 integrin LacZ reporter signal relative to DMSO ([4]; 1 uM): 1.01 | Burkin Assay in Myotubes, α7 integrin LacZ reporter signal relative to DMSO ([4]; 5 uM): 0.8939 | Burkin Assay in Myotubes, α7 integrin LacZ reporter signal relative to DMSO ([4]; 10 uM): 0.954 | Burkin Assay in Myotubes, α7 integrin LacZ reporter signal relative to DMSO ([4]; 20 uM): 0.8049 | Burkin Assay in Myotubes, α7 integrin LacZ reporter signal relative to DMSO ([4]; 40 uM): 0.7617

COC(=O)c1ccc(N=Nc2ccccc2)cc1 [MLS001005712-01]
CMV-LACZ in Myoblasts (β-galactosidase activity relative to DMSO) ([1]; 0.5 uM): 1.0188 | CMV-LACZ in Myoblasts (β-galactosidase activity relative to DMSO) ([1]; 1 uM): 1.2385 | CMV-LACZ in Myoblasts (β-galactosidase activity relative to DMSO) ([1]; 5 uM): 0.8934 | CMV-LACZ in Myoblasts (β-galactosidase activity relative to DMSO) ([1]; 10 uM): 0.9125 | CMV-LACZ in Myoblasts (β-galactosidase activity relative to DMSO) ([1]; 20 uM): 1.0241 | CMV-LACZ in Myoblasts (β-galactosidase activity relative to DMSO) ([1]; 40 uM): 1.0230 | CMV-LACZ in Myotubes, signal relative to DMSO ([2]; 0.5 uM): 1.0684 | CMV-LACZ in Myotubes, signal relative to DMSO ([2]; 1 uM): 1.0379 | CMV-LACZ in Myotubes, signal relative to DMSO ([2]; 5 uM): 0.9623 | CMV-LACZ in Myotubes, signal relative to DMSO ([2]; 10 uM): 0.8075 | CMV-LACZ in Myotubes, signal relative to DMSO ([2]; 20 uM): 1.1133 | CMV-LACZ in Myotubes, signal relative to DMSO ([2]; 40 uM): 1.3167 | Burkin Assay in Myoblasts, signal relative to DMSO ([3]; 0.5 uM): 1.1047 | Burkin Assay in Myoblasts, signal relative to DMSO ([3]; 1 uM): 1.17 | Burkin Assay in Myoblasts, signal relative to DMSO ([3]; 5 uM): 0.926 | Burkin Assay in Myoblasts, signal relative to DMSO ([3]; 10 uM): 0.8783 | Burkin Assay in Myoblasts, signal relative to DMSO ([3]; 20 uM): 0.8763 | Burkin Assay in Myoblasts, signal relative to DMSO ([3]; 40 uM): 0.764 | Burkin Assay in Myotubes, α7 integrin LacZ reporter signal relative to DMSO ([4]; 0.5 uM): 0.8704 | Burkin Assay in Myotubes, α7 integrin LacZ reporter signal relative to DMSO ([4]; 1 uM): 1.173 | Burkin Assay in Myotubes, α7 integrin LacZ reporter signal relative to DMSO ([4]; 5 uM): 0.9472 | Burkin Assay in Myotubes, α7 integrin LacZ reporter signal relative to DMSO ([4]; 10 uM): 0.939 | Burkin Assay in Myotubes, α7 integrin LacZ reporter signal relative to DMSO ([4]; 20 uM): 0.7885 | Burkin Assay in Myotubes, α7 integrin LacZ reporter signal relative to DMSO ([4]; 40 uM): 0.7405

Cc1ccccc1NC(=O)NCCCN1CCN(C)CC1 [MLS001197665-01]
CMV-LACZ in Myoblasts (β-galactosidase activity relative to DMSO) ([1]; 0.5 uM): 0.8584 | CMV-LACZ in Myoblasts (β-galactosidase activity relative to DMSO) ([1]; 1 uM): 0.8347 | CMV-LACZ in Myoblasts (β-galactosidase activity relative to DMSO) ([1]; 5 uM): 0.9214 | CMV-LACZ in Myoblasts (β-galactosidase activity relative to DMSO) ([1]; 10 uM): 0.8403 | CMV-LACZ in Myoblasts (β-galactosidase activity relative to DMSO) ([1]; 20 uM): 0.9556 | CMV-LACZ in Myoblasts (β-galactosidase activity relative to DMSO) ([1]; 40 uM): 1.0267 | CMV-LACZ in Myotubes, signal relative to DMSO ([2]; 0.5 uM): 0.9415 | CMV-LACZ in Myotubes, signal relative to DMSO ([2]; 1 uM): 0.8756 | CMV-LACZ in Myotubes, signal relative to DMSO ([2]; 5 uM): 0.9771 | CMV-LACZ in Myotubes, signal relative to DMSO ([2]; 10 uM): 1.2593 | CMV-LACZ in Myotubes, signal relative to DMSO ([2]; 20 uM): 1.0047 | CMV-LACZ in Myotubes, signal relative to DMSO ([2]; 40 uM): 1.0741 | Burkin Assay in Myoblasts, signal relative to DMSO ([3]; 0.5 uM): 1.062 | Burkin Assay in Myoblasts, signal relative to DMSO ([3]; 1 uM): 1.069 | Burkin Assay in Myoblasts, signal relative to DMSO ([3]; 5 uM): 1.015 | Burkin Assay in Myoblasts, signal relative to DMSO ([3]; 10 uM): 0.9523 | Burkin Assay in Myoblasts, signal relative to DMSO ([3]; 20 uM): 1.094 | Burkin Assay in Myoblasts, signal relative to DMSO ([3]; 40 uM): 1.189 | Burkin Assay in Myotubes, α7 integrin LacZ reporter signal relative to DMSO ([4]; 0.5 uM): 1.115 | Burkin Assay in Myotubes, α7 integrin LacZ reporter signal relative to DMSO ([4]; 1 uM): 1.068 | Burkin Assay in Myotubes, α7 integrin LacZ reporter signal relative to DMSO ([4]; 5 uM): 0.973 | Burkin Assay in Myotubes, α7 integrin LacZ reporter signal relative to DMSO ([4]; 10 uM): 0.999 | Burkin Assay in Myotubes, α7 integrin LacZ reporter signal relative to DMSO ([4]; 20 uM): 1.001 | Burkin Assay in Myotubes, α7 integrin LacZ reporter signal relative to DMSO ([4]; 40 uM): 0.9583

C=CCOc1ccc(C(=O)/C=C2/C(=O)Nc3ccccc32)cc1 [MLS001214264-01]
CMV-LACZ in Myoblasts, value relative to DMSO ([1]; 0.5 uM): 1.0657 | CMV-LACZ in Myoblasts, value relative to DMSO ([1]; 1 uM): 1.1383 | CMV-LACZ in Myoblasts, value relative to DMSO ([1]; 5 uM): 1.3058 | CMV-LACZ in Myoblasts, value relative to DMSO ([1]; 10 uM): 0.9233 | CMV-LACZ in Myoblasts, value relative to DMSO ([1]; 20 uM): 0.3870 | CMV-LACZ in Myoblasts, value relative to DMSO ([1]; 40 uM): 0.4856 | CMV-LACZ in Myotubes, value relative to DMSO ([2]; 0.5 uM): 1.1210 | CMV-LACZ in Myotubes, value relative to DMSO ([2]; 1 uM): 1.1905 | CMV-LACZ in Myotubes, value relative to DMSO ([2]; 5 uM): 0.9411 | CMV-LACZ in Myotubes, value relative to DMSO ([2]; 10 uM): 1.1534 | CMV-LACZ in Myotubes, value relative to DMSO ([2]; 20 uM): 1.2424 | CMV-LACZ in Myotubes, value relative to DMSO ([2]; 40 uM): 1.4482 | Burkin Assay in Myoblasts, value relative to DMSO ([3]; 0.5 uM): 0.8908 | Burkin Assay in Myoblasts, value relative to DMSO ([3]; 1 uM): 0.8464 | Burkin Assay in Myoblasts, value relative to DMSO ([3]; 5 uM): 0.743 | Burkin Assay in Myoblasts, value relative to DMSO ([3]; 10 uM): 0.7009 | Burkin Assay in Myoblasts, value relative to DMSO ([3]; 20 uM): 0.7879 | Burkin Assay in Myoblasts, value relative to DMSO ([3]; 40 uM): 0.2394 | Burkin Assay in Myotubes, value relative to DMSO ([4]; 0.5 uM): 0.9576 | Burkin Assay in Myotubes, value relative to DMSO ([4]; 1 uM): 0.8975 | Burkin Assay in Myotubes, value relative to DMSO ([4]; 5 uM): 0.9073 | Burkin Assay in Myotubes, value relative to DMSO ([4]; 10 uM): 1.058 | Burkin Assay in Myotubes, value relative to DMSO ([4]; 20 uM): 0.7165 | Burkin Assay in Myotubes, value relative to DMSO ([4]; 40 uM): 0.7173
